How the values were obtained:
P70S6K (T412E mutant) = P70S6K (T412E mutant) (Homo sapiens (Human), UniProt P23443, T412E); test: P70S6K enzyme assay; type: biochemical; settings: read-out: IC50 p70S6K
How it was run: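 Read-out is the substrate/phosphopeptide ratio from mobility-shift electrophoresis on a LabChip 3000.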

His-AKT (Full Length) = His-AKT (Full Length) (Homo sapiens (Human), UniProt P31749); test: AKT enzyme assay; type: biochemical; settings: read-out: IC50 AKT
Chain of His-AKT (Full Length) (P31749 whole entry): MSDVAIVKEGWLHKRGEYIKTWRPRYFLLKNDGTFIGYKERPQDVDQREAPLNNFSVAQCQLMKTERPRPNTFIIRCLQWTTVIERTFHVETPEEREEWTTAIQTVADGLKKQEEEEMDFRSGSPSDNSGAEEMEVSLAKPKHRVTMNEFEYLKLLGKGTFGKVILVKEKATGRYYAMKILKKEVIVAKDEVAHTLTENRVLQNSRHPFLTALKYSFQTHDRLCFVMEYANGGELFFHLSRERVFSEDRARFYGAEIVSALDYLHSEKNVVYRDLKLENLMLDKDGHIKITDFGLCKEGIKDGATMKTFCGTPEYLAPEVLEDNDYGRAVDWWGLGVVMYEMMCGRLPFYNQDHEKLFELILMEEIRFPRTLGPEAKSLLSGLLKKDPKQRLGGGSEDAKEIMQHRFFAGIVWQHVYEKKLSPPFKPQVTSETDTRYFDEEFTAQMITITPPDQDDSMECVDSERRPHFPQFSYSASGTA

Chain of P70S6K (T412E mutant) (P23443 whole entry T412E): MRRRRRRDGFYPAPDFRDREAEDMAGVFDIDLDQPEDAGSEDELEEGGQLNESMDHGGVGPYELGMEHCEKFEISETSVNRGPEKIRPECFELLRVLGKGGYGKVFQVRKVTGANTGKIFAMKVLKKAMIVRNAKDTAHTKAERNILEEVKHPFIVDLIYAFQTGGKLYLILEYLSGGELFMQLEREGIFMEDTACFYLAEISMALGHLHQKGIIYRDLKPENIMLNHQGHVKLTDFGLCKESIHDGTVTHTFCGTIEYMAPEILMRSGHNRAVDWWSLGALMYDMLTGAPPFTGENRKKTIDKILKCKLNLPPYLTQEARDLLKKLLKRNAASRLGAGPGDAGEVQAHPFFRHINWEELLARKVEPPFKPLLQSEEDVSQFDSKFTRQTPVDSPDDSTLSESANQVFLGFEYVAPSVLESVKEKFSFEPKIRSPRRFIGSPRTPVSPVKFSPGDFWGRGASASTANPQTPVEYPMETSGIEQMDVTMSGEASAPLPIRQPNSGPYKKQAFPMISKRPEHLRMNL

Structure (SMILES) | IC50 (P70S6K (T412E mutant)) | IC50 (His-AKT (Full Length))
Nc1ncnc(N2CCC(c3nc(-c4ccc(F)c(C(F)(F)F)c4)cn3CCN3CCCC3)CC2)c1Br [Compound 56] | 3.5 nM | 14 nM
CC(C)c1c(N)ncnc1N1CCC(c2nc(-c3ccc(F)c(C(F)(F)F)c3)cn2CCN2CCC2)CC1 [Compound 114, 6-(4-(1-(2-(azetidin-1-yl)ethyl)-4-(4-fluoro-3-(trifluoromethyl)phenyl)-1H-imidazol-2-yl)piperidin-1-yl)-5-isopropylpyrimidin-4-amine] | 3.6 nM | 6.6 nM
Cc1cc(-c2cn(CC3CNC3)c(C3CCN(c4ncnc(N)c4OCC(F)(F)F)CC3)n2)ccc1F [Compound 186, 6-(4-(1-(azetidin-3-ylmethyl)-4-(4-fluoro-3-methylphenyl)-1H-imidazol-2-yl)piperidin-1-yl)-5-(2,2,2-trifluoroethoxy)pyrimidin-4-amine] | 2 nM | 7.1 nM
Cn1cc(-c2ccc(F)c(C(F)(F)F)c2)nc1C1CCN(c2ncnc(N)c2C#N)CC1 [Compound 7, 4-Amino-6-{4-[4-(4-fluoro-3-trifluoromethyl-phenyl)-1-methyl-1H-imidazol-2-yl]-piperidin-1-yl}-pyrimidine-5-carbonitrile] | 1.5 nM | 110 nM
Cc1cc(-c2cn(CCN3CCCC3)c(C3CCN(c4ncnc(N)c4C(N)=O)CC3)n2)ccc1F [Compound 350] | 2.3 nM | 10 nM
CCN(CCn1cc(-c2ccc(F)c(C)c2)nc1C1CCN(c2ncnc(N)c2OC(C)C)CC1)C(C)C [Compound 302] | 12 nM | 6.3 nM
N#Cc1c(N)ncnc1N1CCC(c2nc(-c3ccnc(C4CC4)c3)cn2CCN2CCC2)CC1 [Compound 319] | 1.7 nM | 23 nM
CCc1c(N)ncnc1N1CCC(c2nc(-c3ccc(F)c(C)c3)cn2CCN(C)C)CC1 [Compound 295] | 4.1 nM | 23 nM
N#Cc1c(N)ncnc1N1CCC(c2nc(-c3ccnc(F)c3)cn2CCN2CCC2)CC1 [Compound 206, 4-Amino-6-{4-[1-(2-azetidin-1-yl-ethyl)-4-(2-fluoro-pyridin-4-yl)-1H-imidazol-2-yl]-piperidin-1-yl}-pyrimidine-5-carbonitrile] | 2.4 nM | 13 nM
CCc1c(N)ncnc1N1CCC(c2nc(-c3ccnc(OC)c3)cn2CCN2CCC2)CC1 [Compound 112, 6-(4-(1-(2-(azetidin-1-yl)ethyl)-4-(2-methoxypyridin-4-yl)-1H-imidazol-2-yl)piperidin-1-yl)-5-ethylpyrimidin-4-amine] | 64.5 nM | 940 nM
NC(=O)c1c(N)ncnc1N1CCC(c2nc(-c3ccc(F)c(C(F)(F)F)c3)cn2CCN2CCC2)CC1 [Compound 78, 4-Amino-6-{4-[1-(2-azetidin-1-yl-ethyl)-4-(4-fluoro-3-trifluoromethyl-phenyl)-1H-imidazol-2-yl]-piperidin-1-yl}-pyrimidine-5-carboxylic acid amide] | 2 nM | 14 nM
Cc1cc(-c2cn(CCN(C)C)c(C3CCN(c4ncnc(N)c4C#N)CC3)n2)ccc1F [Compound 325] | 0.5 nM | 0.9 nM
Nc1ncnc(N2CCC(c3nc(-c4ccc(C(F)(F)F)c(F)c4)cn3CCN3CCCC3)CC2)c1Br [Compound 229] | 6.3 nM | 71 nM
CCc1c(N)ncnc1N1CCC(c2nc(-c3ccc(C(F)(F)F)c(F)c3)cn2CCN2CCC(F)CC2)CC1 [Compound 249] | 10 nM | 86 nM
Nc1ncnc(N2CCC(c3nc(-c4ccc(F)c(C(F)(F)F)c4)c[nH]3)CC2)c1Br [Compound 43, 5-Bromo-6-{4-[4-(4-fluoro-3-trifluoromethyl-phenyl)-1H-imidazol-2-yl]-piperidin-1-yl}-pyrimidin-4-ylamine] | 1.7 nM | 600 nM
NC(=O)c1c(N)ncnc1N1CCC(c2nc(-c3ccc(F)c(C(F)(F)F)c3)cn2C2CCNCC2)CC1 [Compound 154, 4-amino-6-(4-(4-(4-fluoro-3-(trifluoromethyl)phenyl)-1-(piperidin-4-yl)-1H-imidazol-2-yl)piperidin-1-yl)pyrimidine-5-carboxamide] | 3 nM | 480 nM
CCOc1c(N)ncnc1N1CCC(c2nc(-c3ccc(F)c(C)c3)cn2CCN(CC)CC)CC1 [Compound 303] | 2.4 nM | 0.8 nM
CC(C)Oc1c(N)ncnc1N1CCC(c2nc(-c3ccc(F)c(C(F)(F)F)c3)cn2CC2CNC2)CC1 [Compound 175, 6-(4-(1-(azetidin-3-ylmethyl)-4-(4-fluoro-3-(trifluoromethyl)phenyl)-1H-imidazol-2-yl)piperidin-1-yl)-5-isopropoxypyrimidin-4-amine] | 5.9 nM | 4.5 nM

Structure (SMILES) | IC50 (P70S6K (T412E mutant)) | IC50 (His-AKT (Full Length))
N#Cc1c(N)ncnc1N1CCC(c2nc(-c3ccc(OC(F)F)cc3)cn2CCN2CCC2)CC1 [Compound 76, 4-Amino-6-{4-[1-(2-azetidin-1-yl-ethyl)-4-(4-difluoromethoxy-phenyl)-1H-imidazol-2-yl]-piperidin-1-yl}-pyrimidine-5-carbonitrile] | 2.1 nM | 479 nM
Nc1cc(N2CCC(c3nc(-c4ccc(F)c(F)c4)cn3CCN3CCCC3)CC2)ncn1 [Compound 243] | 18 nM | 63 nM
Nc1ncnc(N2CCC(c3nc(-c4ccc(F)c(C(F)(F)F)c4)cn3CCN3CCCCC3)CC2)c1-c1cccc(F)c1 [Compound 64] | 8.7 nM | 85 nM
CCN(CCn1cc(-c2ccc(F)c(C)c2)nc1C1CCN(c2ncnc(N)c2C(N)=O)CC1)C(C)C [Compound 351] | 27 nM | 48 nM
CN(C)CCN(C)CCn1cc(-c2ccc(F)c(C(F)(F)F)c2)nc1C1CCN(c2ncnc(N)c2C(N)=O)CC1 [Compound 365, 4-Amino-6-{4-[1-{2-[(2-dimethylamino-ethyl)-methyl-amino]-ethyl}-4-(4-fluoro-3-trifluoromethyl-phenyl)-1H-imidazol-2-yl]-piperidin-1-yl}-pyrimidine-5-carboxylic acid amide] | 6.3 nM | 730 nM
N#Cc1c(N)ncnc1N1CCC(c2nc(-c3ccc(F)cc3)cn2CCN2CCCC2)CC1 [Compound 308] | 2.6 nM | 13 nM
Nc1ncnc(N2CCC(c3nc(-c4cccc(Cl)c4)cn3CCN3CCCC3)CC2)c1C1CCC1 [Compound 264] | 4.1 nM | 6.2 nM
C=Cc1c(N)ncnc1N1CCC(c2nc(-c3ccc(F)c(C(F)(F)F)c3)cn2CCN2CCCCC2)CC1 [Compound 65, 6-{4-[4-(4-Fluoro-3-trifluoromethyl-phenyl)-1-(2-piperidin-1-yl-ethyl)-1H-imidazol-2-yl]-piperidin-1-yl}-5-vinyl-pyrimidin-4-ylamine] | 5.5 nM | 12 nM
CN(C)CCn1cc(-c2ccc(F)c(C(F)(F)F)c2)nc1C1CCN(c2ncnc(N)c2C2CC2)CC1 [Compound 91, 5-Cyclopropyl-6-(4-(1-(2-(dimethylamino)ethyl)-4-(4-fluoro-3-(trifluoromethyl)phenyl)-1H-imidazol-2-yl)piperidin-1-yl)pyrimidin-4-amine] | 3.2 nM | 4.8 nM
Cn1cc(-c2ccc(F)c(C(F)(F)F)c2)nc1C1CCN(c2ncnc(N)c2-c2ccc(F)cc2)CC1 [Compound 10, 5-(4-Fluoro-phenyl)-6-{4-[4-(4-fluoro-3-trifluoromethyl-phenyl)-1-methyl-1H-imidazol-2-yl]-piperidin-1-yl}-pyrimidin-4-ylamine] | 3.4 nM | 2200 nM
N#Cc1c(N)ncnc1N1CCC(c2nc(-c3cc[nH]c(=O)c3)cn2CCN2CCC2)CC1 [Compound 315] | 99 nM | 500 nM
N#Cc1c(N)ncnc1N1CCC(c2nc(-c3ccc(F)c(C(F)(F)F)c3)cn2CCN2CCCC2)CC1 [Compound 305] | 1.9 nM | 3.2 nM
CNCCn1cc(-c2ccnc(C(F)(F)F)c2)nc1C1CCN(c2ncnc(N)c2Br)CC1 [Compound 166, 5-bromo-6-(4-(1-(2-(methylamino)ethyl)-4-(2-(trifluoromethyl)pyridin-4-yl)-1H-imidazol-2-yl)piperidin-1-yl)pyrimidin-4-amine] | 1.3 nM | 1.5 nM
NC(=O)c1c(N)ncnc1N1CCC(c2nc(-c3ccc(OC(F)F)cc3)cn2CCN2CCC2)CC1 [Compound 81, 4-Amino-6-{4-[1-(2-azetidin-1-yl-ethyl)-4-(4-difluoromethoxy-phenyl)-1H-imidazol-2-yl]-piperidin-1-yl}-pyrimidine-5-carboxylic acid amide] | 98 nM | 15000 nM
Nc1ncnc(N2CCC(c3nc(-c4ccnc(C(F)(F)F)c4)cn3CCN3CCC3)CC2)c1Cl [Compound 144, 6-(4-(1-(2-(azetidin-1-yl)ethyl)-4-(2-(trifluoromethyl)pyridin-4-yl)-1H-imidazol-2-yl)piperidin-1-yl)-5-chloropyrimidin-4-amine] | 1.1 nM | 2.5 nM
Nc1ncnc(N2CCC(c3nc(-c4ccc(F)c(C(F)(F)F)c4)cn3CCN3CCC3)CC2)c1C=O [Compound 285] | 1 nM | 1.4 nM
C=C(C)c1c(N)ncnc1N1CCC(c2nc(-c3ccc(F)c(C(F)(F)F)c3)cn2CCN(C)C)CC1 [Compound 72, 6-{4-[1-(2-Dimethylamino-ethyl)-4-(4-fluoro-3-trifluoromethyl-phenyl)-1H-imidazol-2-yl]-piperidin-1-yl}-5-isopropenyl-pyrimidin-4-ylamine] | 5 nM | 15 nM
CN(CCn1cc(-c2ccc(F)c(C(F)(F)F)c2)nc1C1CCN(c2ncnc(N)c2C(N)=O)CC1)Cc1ccccc1 [Compound 368, 4-Amino-6-{4[1-[2-(benzyl-methyl-amino)-ethyl]-4-(4-fluoro-3-trifluoromethyl-phenyl)-1H-imidazol-2-yl]-piperidin-1-yl}-pyrimidine-5-carboxylic acid amide] | 21 nM | 760 nM
